# Source: patent publication US7273846B2, “Selective melanin-concentrating hormone type-1 receptor agonists” (priority 2002, dated 2007)
# Residues, ends and D or L forms follow the SMILES beside them.
# Tests used:
# MCH-2R [1] = biological target: T1, MCH-2R (Homo sapiens, UniProt Q969V1); assay: Radioligand binding assay (SPA), MCH-2R; conditions: for IC50: MCH-2R IC50, [125I]-[Phe13,Tyr19]-hMCH SPA, COS or CHO MCH-2R membranes
# Protocol: (§3) For transient expression, COS-7 cells were cultured in Dulbecco's modified Eagle medium (Gibco BRL, Rockville, Md.) with 10% heat inactivated fetal calf serum.
# (§4) A suspension of 7×10^6 COS-7 cells were transfected with 20 μg of pCI-neo/MCH-2R plasmid by electroporation and cells were harvested after 60-72 hours. Membranes were prepared from transient and stable transfectants by hypotonic lysis, frozen in liquid nitrogen, and stored at −80° C.
# (§5) Assays were optimized with respect to membrane preparations: for CHO/MCH-1R membranes, 1 μg of membranes per well yielded a>6× specific binding window and for COS or CHO MCH-2R membranes, 8 μg of membrane protein yielded a window of about 3×.
# (§6) Specific binding is defined as the difference between total binding and non-specific binding conducted in the presence of 500 nM unlabeled hMCH. […] After equilibrating at room temperature for 3 hours, the plates were read in a TopCount (Packard, Meriden, Conn.). IC50 calculations were performed using Prism 3.0 (GraphPad. Software, San Diego, Calif.). The IC50 values were measured in three different experiments.
# MCH-1R [2] = biological target: T2, MCH-1R (Homo sapiens, UniProt Q99705); assay: Aequorin bioluminescence functional assay, 293AEQ17/MCH-1R cells; assay type: cell-based; parameters: expressed in transfected cells; conditions: for MCH-1R Activation %: human MCH = 100, activation at 10 μM concentration; for EC50: aequorin, 293AEQ17/MCH-1R cells, read-out: MCH-1R EC50; for fold lower agonist activity at hMCH-1R: relative to Ac-hMCH(6-16)-NH2
# T2 sequence (Q99705 whole entry): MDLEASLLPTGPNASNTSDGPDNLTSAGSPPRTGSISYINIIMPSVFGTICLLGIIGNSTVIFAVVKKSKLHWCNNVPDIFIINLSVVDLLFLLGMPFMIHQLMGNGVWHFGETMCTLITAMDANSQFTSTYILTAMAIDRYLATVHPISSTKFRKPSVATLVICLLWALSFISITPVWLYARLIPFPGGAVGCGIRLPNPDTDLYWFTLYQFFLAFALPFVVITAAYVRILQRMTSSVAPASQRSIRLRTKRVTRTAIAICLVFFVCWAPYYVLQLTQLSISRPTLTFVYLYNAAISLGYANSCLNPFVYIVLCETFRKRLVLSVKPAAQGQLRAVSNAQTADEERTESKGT
# Protocol: (§1) The aequorin bioluminescence assay is a reliable test for identifying G-protein-coupled receptors that couple through the G protein subunit family consisting of Gq and G11. Gq and G11 coupling leads to the activation of phospholipase C, mobilization of intracellular calcium, and activation of protein kinase C.
# Stable cell lines expressing either the MCH-1R or the MCH-2R and the aequorin reporter protein were used. The assay was performed using a Luminoskan RT luminometer (Labsystems Inc., Gaithersburg, Md.) controlled by custom software written for a Macintosh PowerPC 6100.
# (§2) The cells were harvested, washed once in ECB medium, and resuspended to 500,000 cells/mL. 100 μL of cell suspension (corresponding to 5×10^4 cells) was then injected into the test plate containing the hMCH peptides, and the integrated light emission was recorded over 30 seconds, in 0.5-s units. 20 μL of lysis buffer (0.1% final Triton X-100 concentration) was then injected and the integrated light emission recorded over 10 seconds, in 0.5-s units. The “fractional response” values for each well were calculated by taking the ratio of the integrated response to the initial challenge to the total integrated luminescence including the Triton X-100 lysis response.
# MCH-2R [3] = biological target: T1, MCH-2R; assay: Aequorin bioluminescence functional assay, 293AEQ17/MCH-2R cells; assay type: cell-based; parameters: expressed in transfected cells; MCH-2R Activation %: concentration or dose not given beside the values; conditions: for MCH-2R Activation %: human MCH = 100; for EC50: aequorin, 293AEQ17/MCH-2R cells
# From the text: as §1
# Stable cell lines expressing either the MCH-1R or the MCH-2R and the aequorin reporter protein were used.
# as §2
# MCH-1R [4] = biological target: T2, MCH-1R
# Protocol: as §3, §4, §5, §6
# MCH-1R [5] = biological target: T2, MCH-1R; assay: biochemical
# Protocol: as §3, §4, §5, §6
# T1 sequence (Q969V1 whole entry): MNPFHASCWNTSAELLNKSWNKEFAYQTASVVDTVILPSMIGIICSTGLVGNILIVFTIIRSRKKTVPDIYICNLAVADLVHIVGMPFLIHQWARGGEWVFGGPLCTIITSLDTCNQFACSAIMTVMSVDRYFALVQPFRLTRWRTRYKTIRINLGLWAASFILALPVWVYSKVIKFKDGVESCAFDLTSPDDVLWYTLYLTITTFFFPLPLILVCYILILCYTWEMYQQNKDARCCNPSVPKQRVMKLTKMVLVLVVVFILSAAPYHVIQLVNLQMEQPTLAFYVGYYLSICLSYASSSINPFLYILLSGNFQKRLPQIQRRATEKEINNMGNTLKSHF
Structure (SMILES),IC50 (MCH-2R [1]) [nM],Selectivity 2/1 (MCH-2R/MCH-1R EC50 activity ratio) (MCH-1R [2]),MCH-1R Activation % (MCH-1R [2]) [%],MCH-2R Activation % (MCH-2R [3]) [%],Selectivity 2/1 (MCH-2R/MCH-1R IC50 binding ratio) (MCH-1R [4]),EC50 (MCH-1R [2]) [nM],IC50 (MCH-1R [5]) [nM],fold lower agonist activity at hMCH-1R (MCH-1R [2]) [fold],fold lower agonist potency at hMCH-2R (MCH-2R [3]; relative to Ac-hMCH(6-16)-NH2) [fold],binding to hMCH-2R in words (MCH-2R [1]),EC50 (MCH-2R [3]) [nM],fold lower binding affinity at hMCH-1R (MCH-1R [4]; relative to Ac-hMCH(6-16)-NH2),agonism at hMCH-1R in words (MCH-1R [2]),agonism at hMCH-2R in words (MCH-2R [3]),fold weaker binding at hMCH-2R (MCH-2R [1]; relative to Ac-hMCH(6-16)-NH2),binding to hMCH-1R in words (MCH-1R [4]),fold more selective as agonist for hMCH-1R than hMCH-2R (MCH-1R [2])
"CSCC[C@@H]1NC(=O)[C@@H](NC(=O)[C@H](CCCNC(=N)N)NC(C)=O)CSSC[C@@H](C(N)=O)NC(=O)[C@@H]2CCCN2C(=O)[C@H](CCCNC(=N)N)NC(=O)[C@H](Cc2ccc(O)cc2)NC(=O)[C@H](C(C)C)NC(=O)[C@H](CCCNC(=N)N)NC(=O)[C@H](CO)NC(=O)[C@H](CC(C)C)NC1=O [SEQ. ID. NO. 26] (HELM PEPTIDE1{[ac].R.C.M.L.S.R.V.Y.R.P.C.[am]}$PEPTIDE1,PEPTIDE1,3:R3-12:R3$$$V2.0)",55,0.7,120,87,100,,,,,,,,,,,,
"CSCC[C@@H]1NC(=O)[C@@H](NC(=O)[C@H](CCCNC(=N)N)NC(C)=O)CSSC[C@@H](C(N)=O)NC(=O)[C@@H]2CCCN2C(=O)[C@H](CCCNC(=N)N)NC(=O)[C@H](Cc2ccc(O)cc2)NC(=O)[C@H](C(C)C)NC(=O)[C@H](CCCNC(=N)N)NC(=O)[C@H](CC(N)=O)NC(=O)[C@H](CC(C)C)NC1=O [SEQ. ID. NO. 25] (HELM PEPTIDE1{[ac].R.C.M.L.N.R.V.Y.R.P.C.[am]}$PEPTIDE1,PEPTIDE1,3:R3-12:R3$$$V2.0)",,4.7,126,86,1800,51,0.28,,,,,,,,,,
"CSCC[C@@H]1NC(=O)[C@@H](NC(=O)[C@H](CCCNC(=N)N)NC(C)=O)CSSC[C@@H](C(N)=O)NC(=O)[C@@H]2CCCN2C(=O)[C@H](CCCNC(=N)N)NC(=O)[C@H](Cc2ccc(O)cc2)NC(=O)[C@H](C(C)C)NC(=O)[C@H](CCCNC(=N)N)NC(=O)[C@H](Cc2ccccc2)NC(=O)[C@H](CC(C)C)NC1=O [SEQ. ID. NO. 20] (HELM PEPTIDE1{[ac].R.C.M.L.F.R.V.Y.R.P.C.[am]}$PEPTIDE1,PEPTIDE1,3:R3-12:R3$$$V2.0)",1.9,0.75,75,88,19,66,0.1,,,,,,,,,,
CSCC[C@@H]1NC(=O)[C@@H](NC(=O)[C@H](CCCNC(=N)N)NC(C)=O)CSSC[C@@H](C(N)=O)NC(=O)[C@@H]2CCCN2C(=O)[C@H](CCCNC(=N)N)NC(=O)[C@H](Cc2ccc(O)cc2)NC(=O)[C@H](C(C)C)NC(=O)[C@H](CCCNC(=N)N)NC(=O)[C@H](CCCCN)NC(=O)[C@H](CC(C)C)NC1=O [SEQ. ID. NO. 24],1460,1,43,40,86,,,300,300,,,,,,,,
CSCC[C@@H]1NC(=O)CCSSC[C@@H](C(N)=O)NC(=O)[C@@H]2CCCN2C(=O)[C@H](CCCNC(=N)N)NC(=O)[C@H](Cc2ccc(O)cc2)NC(=O)[C@H](C(C)C)NC(=O)[C@H](CCCNC(=N)N)NC(=O)CNC(=O)[C@H](CC(C)C)NC1=O [SEQ. ID. NO. 15],3500,5,92,47,500,,,~30,,very weak ligand,> 3000,about 5 fold,,,,,
CSCC[C@@H]1NC(=O)[C@@H](NC(=O)[C@@H](CCCCN)NC(C)=O)CSSC[C@@H](C(N)=O)NC(=O)[C@@H]2CCCN2C(=O)[C@H](CCCNC(=N)N)NC(=O)[C@H](Cc2ccc(O)cc2)NC(=O)[C@H](C(C)C)NC(=O)[C@H](CCCNC(=N)N)NC(=O)CNC(=O)[C@H](CC(C)C)NC1=O [SEQ. ID. NO. 13],,22,130,55,3800,,0.3,,,,,,,,,,
CSCC[C@@H]1NC(=O)[C@@H](NC(=O)[C@H](CCCNC(=N)N)NC(C)=O)CSSC[C@@H](C(N)=O)NC(=O)[C@@H]2CCCN2C(=O)[C@H](CCCNC(=N)N)NC(=O)[C@H](Cc2ccc(O)cc2)NC(=O)[C@H](C(C)C)NC(=O)[C@H](CCCNC(=N)N)NC(=O)[C@H](CC2CCCCC2)NC(=O)[C@H](CC(C)C)NC1=O [SEQ. ID. NO. 19],55,0.25,76,74,11,,,,,,,,poorly activated both receptors,poorly activated both receptors,,,
CSCC[C@@H]1NC(=O)[C@@H](NC(=O)[C@H](N)CCCNC(=N)N)CSSC[C@@H](C(N)=O)NC(=O)[C@@H]2CCCN2C(=O)[C@H](CCCNC(=N)N)NC(=O)[C@H](Cc2ccc(O)cc2)NC(=O)[C@H](C(C)C)NC(=O)[C@H](CCCNC(=N)N)NC(=O)CNC(=O)[C@H](CC(C)C)NC1=O [SEQ. ID. NO. 4],,0.5,130,83,130,,35,,,,55,,,,more than 10 fold,equipotent to Ac-hMCH(6-16)-NH2,
"CCCC[C@@H]1NC(=O)[C@@H](NC(=O)[C@@H](CCCNC(=N)N)NC(C)=O)CSSC[C@@H](C(N)=O)NC(=O)[C@@H]2CCCN2C(=O)[C@H](CCCNC(=N)N)NC(=O)[C@H](Cc2ccc(O)cc2)NC(=O)[C@H](C(C)C)NC(=O)[C@H](CCCNC(=N)N)NC(=O)[C@H](CC(N)=O)NC(=O)[C@H](CC(C)C)NC1=O [SEQ. ID. NO. 31] (HELM PEPTIDE1{[ac].[dR].C.[Nle].L.N.R.V.Y.R.P.C.[am]}$PEPTIDE1,PEPTIDE1,3:R3-12:R3$$$V2.0)",,23,130,23,5700,,0.28,,,,,,potent and selective hMCH-1R agonists,,,,
"CSCC[C@@H]1NC(=O)[C@@H](NC(=O)[C@@H](CCCNC(=N)N)NC(C)=O)CSSC[C@@H](C(N)=O)NC(=O)[C@@H]2CCCN2C(=O)[C@H](CCCNC(=N)N)NC(=O)[C@H](Cc2ccc(O)cc2)NC(=O)[C@H](C(C)C)NC(=O)[C@H](CCCNC(=N)N)NC(=O)[C@H](CC(N)=O)NC(=O)[C@H](CC(C)C)NC1=O [SEQ. ID. NO. 29] (HELM PEPTIDE1{[ac].[dR].C.M.L.N.R.V.Y.R.P.C.[am]}$PEPTIDE1,PEPTIDE1,3:R3-12:R3$$$V2.0)",,150,120,20,6600,,0.5,,,,,,activated hMCH-1R almost as efficiently as Ac-hMCH(6-16)NH2,,,,about 150 fold
CSCC[C@@H]1NC(=O)[C@@H](NC(=O)[C@H](CCCNC(=N)N)NC(C)=O)CSSC[C@@H](C(N)=O)NC(=O)[C@@H]2CCCN2C(=O)[C@H](CCCNC(=N)N)NC(=O)[C@H](Cc2ccc(O)cc2)NC(=O)[C@H](C(C)C)NC(=O)[C@H](CCCNC(=N)N)NC(=O)[C@@H]2CCCN2C(=O)[C@H](CC(C)C)NC1=O [SEQ. ID. NO. 22],3500,,10,13,5,> 10000,,,,,,,virtually inactive at micromolar concentrations,virtually inactive at micromolar concentrations,,,
